Experimental data from patent publication US20050014680A1, “Methods and compositions for enhancing neuron growth and survival” (priority 2003, published 2005).

How the values were obtained:
[1] = tested on: dissociated E10.5 trigeminal neurons; assay: Survival assay, Tunel staining of low-density dissociated E10.5 trigeminal neurons; format: cell-based, mouse; conditions: serum-free medium, 24 hr; 150 nM Kn252a; 100 ng/ml FK506, 1 μg/ml CsA
Source text: Embryos were obtained from timed pregnancies with the noon of the plug date defined as […]. For whole-mount studies, embryos were processed and stained with anti-Neurofilament antibody (clone 2H3, DSHB) and processed for DAB or fluorescent staining. Sections were stained with anti-NF-M antibody, anti-TAG-1 antibody, anti-Lim1/2, anti-Pax7, anti-Nkx2.2, anti HNF-3b, anti-islet-1 (all from DSHB), Tuj-1 (ABR) and anti-TrkC (Chemicon). Secondary antibodies used were HRP conjugated goat anti-mouse antibody (Jackson Immunoresearch), Alexa-594 and Alexa-488 conjugated goat anti-mouse antibody (Molecular Probes) as well as anti-mouse and anti-rabbit ABC kits (Vector). Tunel assays were performed according to the manufacturer's recommendations (Roche).
Trigeminal ganglia were incubated for 5 minutes at 37° C. with 10 mg/ml trypsin (Sigma)+DNAse (Sigma) in calcium- and magnesium-free (CMF) HBSS. After removal of the trypsin solution, the ganglia were washed 3 times with Hams F12 medium containing 10% heat-inactivated horse serum washed 3 times with CMF-HBSS and were gently triturated in 1 ml CMF-HBSS+DNAse with a fire-polished, siliconised Pasteur pipettes to give a single cell suspension. […]

NFATc4 = assay: Cytoplasmic-to-nuclear translocation of EGFP-NFATc4 in cortical neurons; format: cell-based, mouse and rat
Experimental: (§1) The reporter plasmid NFAT-Luciferase and the EGFP-NFATc4 plasmid have been described elsewhere (Graef et al., 1999). The TrkA constructs have been previously described (Ming et al., 1999). For luciferase assays the cells were treated 16 hrs after transfection with 100 ng/ml recombinant BDNF (Gibco) or 100 ng/ml recombinant NGF. For studies with FK506/CsA the cells were preincubated for 10 min with the inhibitors before stimulation and the inhibitors were present during the stimulation. Cells were lysed for luciferase assays 18 hrs after stimulation and luciferase assays performed according to standard protocols. For microscopy, neurons were fixed in 4% formaldehyde/PBS. Co-transfected m yc-epitope tagged Trk-A was visualized by staining with anti-myc antibody (clone 4E10, Pharmingen), followed by Alexa-594 conjugated goat anti-mouse antibody (Molecular Probes).

[2] = tested on: NFAT-dependent transcription; assay: NFAT-luciferase reporter assay in cortical neurons; format: cell-based, mouse and rat; conditions: E15.5 cultured cortical neurons, 100 ng/ml, lysed 18 hrs after stimulation
Experimental: as §1

[3] = tested on: trigeminal neuron growth cones; assay: Growth cone morphology and collapse, trigeminal explant cubes stained with phalloidin; format: cell-based, mouse; conditions: c2/c3/c4 triple mutant ganglia or wild-type ganglia cultured with CsA and FK506, 30 min
Experimental: E10.5 trigeminal explants were cultured in either collagen or matrigel (Becton-Dickinson) gels in the presence of NT-3 (Gibco) and NGF (Gibco) as previously described (O'Connor and Tessier-Lavigne, 1999). The explants were then fixed in 4% PFA/PBS and axons were visualized by wholemount immunostaining with the anti-NF-M antibody (O'Connor and Tessier-Lavigne, 1999). For cultures on laminin, eight-well chamber tissue culture slides were coated with poly-L-lysine followed by laminin. Trigeminal ganglia were either dissociated or cut into small cubes and cultured in medium supplemented with NT-3 and NGF. For assessing growth cone morphology cells were fixed with 25% sucrose in 4% PFA/PBS and stained with either Alexa 594-phalloidin (Molecular Probes) alone or plus anti-III β-tubulin antibody (Tuj-1, Covance).

Molecule: COC(=O)[C@@]1(O)C[C@H]2O[C@]1(C)n1c3ccccc3c3c4c(c5c6ccccc6n2c5c31)C(=O)NC4 [Kn252a]
- cell death (Tunel-positive cells) [1]: even greater degree of cell death

Molecule: NGF: recombinant NGF, nerve growth factor, a neurotrophin
- nuclear translocation of EGFP-NFATc4, no TrkA transfected (NFATc4; E15.5 cortical neurons lacking TrkA (data not shown)): did not induce translocation
- nuclear translocation of EGFP-NFATc4, TrkA co-transfected (NFATc4; cortical neurons co-transfected with EGFP-NFATc4 and TrkA, 100 ng/ml NGF): led to rapid translocation of EGFP-NFATc4 into the nucleus
- activation of NFAT-dependent transcription [2]: did not activate transcription from this reporter unless TrkA was introduced

B1: BDNF: recombinant BDNF (Gibco), a neurotrophin (protein, UniProt P23560 19-247, looked up)
Neurotrophic factor BDNF …: APMKEANIRGQGGLAYPGVRTHGTLESVNGPKAGSRGLTSLADTFEHVIEELLDEDQKVRPNEENNKDADLYTSRVMLSSQVPLEPPLLFLLEEYKNYLDAANMSMRVRRHSDPARRGELSVCDSISEWVTAADKKTAVDMSGGTVTVLEKVPVSKGQLKQYFYETKCNPMGYTKEGCRGIDKRHWNSQCRTTQSYVRALTMDSKKRIGWRFIRIDTSCVCTLTIKRGR
- time to nuclear translocation of EGFP-tagged NFATc4 (NFATc4; E15.5 cortical neurons, 100 ng/ml BDNF): ≤ 30 min
- activation of NFAT-dependent transcription [2]: powerful activator of NFAT-dependent transcription

B2: Sema3A: semaphorin 3-A, induces growth cone collapse (protein, UniProt Q14563 21-771, looked up)
Semaphorin-3A: NYQNGKNNVPRLKLSYKEMLESNNVITFNGLANSSSYHTFLLDEERSRLYVGAKDHIFSFDLVNIKDFQKIVWPVSYTRRDECKWAGKDILKECANFIKVLKAYNQTHLYACGTGAFHPICTYIEIGHHPEDNIFKLENSHFENGRGKSPYDPKLLTASLLIDGELYSGTAADFMGRDFAIFRTLGHHHPIRTEQHDSRWLNDPKFISAHLISESDNPEDDKVYFFFRENAIDGEHSGKATHARIGQICKNDFGGHRSLVNKWTTFLKARLICSVPGPNGIDTHFDELQDVFLMNFKDPKNPVVYGVFTTSSNIFKGSAVCMYSMSDVRRVFLGPYAHRDGPNYQWVPYQGRVPYPRPGTCPSKTFGGFDSTKDLPDDVITFARSHPAMYNPVFPMNNRPIVIKTDVNYQFTQIVVDRVDAEDGQYDVMFIGTDVGTVLKVVSIPKETWYDLEEVLLEEMTVFREPTAISAMELSTKQQQLYIGSTAGVAQLPLHRCDIYGKACAECCLARDPYCAWDGSACSRYFPTAKRRTRRQDIRNGDPLTHCSDLHHDNHHGHSPEERIIYGVENSSTFLECSPKSQRALVYWQFQRRNEERKEEIRVDDHIIRTDQGLLLRSLQQKDSGNYLCHAVEHGFIQTLLKVTLEVIDTEHLEELLHKDDDGDGSKTKEMSNSMTPSQKVWYRDFMQLINHPNLNTMDEFCEQVWKRDRKQRRQRPGHTPGNSNKWKHLQENKKGRNRRTHEFERAPRSV
- collapse of growth cones on matrigel [3]: induced efficient collapse of growth cones
